Measurements reported in ChEMBL document CHEMBL3585297, “New amide derivatives of Probenecid as selective inhibitors of carbonic anhydrase IX and XII: biological evaluation and molecular modelling studies” (Bioorg Med Chem, 2015).

Key:
Carbonic anhydrase 2 = Carbonic anhydrase 2 (Homo sapiens, UniProt P00918); test: Inhibition of human carbonic anhydrase 2 by stopped-flow CO2 hydrase assay
Carbonic anhydrase 9 = Carbonic anhydrase 9 (Homo sapiens, UniProt Q16790); test: Inhibition of human carbonic anhydrase 9 by stopped-flow CO2 hydrase assay
Carbonic anhydrase 1 = Carbonic anhydrase 1 (Homo sapiens, UniProt P00915); test: Inhibition of human carbonic anhydrase 1 by stopped-flow CO2 hydrase assay
Chain of Carbonic anhydrase 1 (P00915 whole entry): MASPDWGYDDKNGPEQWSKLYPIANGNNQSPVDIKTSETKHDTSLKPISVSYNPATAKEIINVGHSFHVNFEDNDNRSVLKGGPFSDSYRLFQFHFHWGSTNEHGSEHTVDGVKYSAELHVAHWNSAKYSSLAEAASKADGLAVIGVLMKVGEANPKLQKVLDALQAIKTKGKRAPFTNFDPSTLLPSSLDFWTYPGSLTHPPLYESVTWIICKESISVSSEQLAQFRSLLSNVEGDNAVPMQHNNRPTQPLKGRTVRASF

Compound | Ki (Carbonic anhydrase 2) [µM] | Ki (Carbonic anhydrase 9) [µM] | Ki (Carbonic anhydrase 1) [µM]
CCCN(CCC)S(=O)(=O)c1ccc(C(=O)NCc2ccccc2)cc1 | > 10 | 0.0206 | > 10
CCCN(CCC)S(=O)(=O)c1ccc(C(=O)Nc2ccccc2C)cc1 | > 10 | 0.0613 | > 10
CCCN(CCC)S(=O)(=O)c1ccc(C(=O)NCCN2CCCCC2)cc1 | > 10 | 1.26 | > 10
CCCN(CCC)S(=O)(=O)c1ccc(C(=O)NCC)cc1 | > 10 | – | > 10
CCCN(CCC)S(=O)(=O)c1ccc(C(=O)NC2CCCC(C)C2)cc1 (centres undefined) | > 10 | 0.188 | > 10
CCCN(CCC)S(=O)(=O)c1ccc(C(=O)Nc2ccccn2)cc1 | > 10 | 0.199 | –

Now from value to compound:

Ki (Carbonic anhydrase 2) [µM] | Ki (Carbonic anhydrase 9) [µM] | Ki (Carbonic anhydrase 1) [µM] | Compound
> 10 | 0.11 | > 10 | CCCN(CCC)S(=O)(=O)c1ccc(C(=O)NCCN(CC)CC)cc1
> 10 | 2.04 | > 10 | CCCN(CCC)S(=O)(=O)c1ccc(C(=O)Nc2ccncc2)cc1
> 10 | 2.02 | > 10 | CCCN(CCC)S(=O)(=O)c1ccc(C(=O)NC2CCC(C)CC2)cc1 (centres undefined)
> 10 | 0.246 | > 10 | CCCN(CCC)S(=O)(=O)c1ccc(C(=O)Nc2ccc([N+](=O)[O-])cc2)cc1
> 10 | 0.0236 | > 10 | CCCN(CCC)S(=O)(=O)c1ccc(C(=O)Nc2ccccc2Cl)cc1
> 10 | 0.213 | > 10 | CCCN(CCC)S(=O)(=O)c1ccc(C(=O)NCCCN2CCOCC2)cc1
